Data on 13 molecules can be found in patent US20230322761A1, “DEGRADATION OF BRUTON'S TYROSINE KINASE (BTK) BY CONJUGATION OF BTK INHIBITORS WITH E3 LIGASE LIGAND AND METHODS OF USE” (BEIGENE, LTD., priority 2020, published 2023).

Where a name gives a salt, the structure may show the parent alone.

This test deals with T1, BTK (Homo sapiens, UniProt Q06187).
T1 construct: endogenous in cells; host or cells: TMD-8 cells
The experiment in a line: BTK degradation in TMD-8 cells, HTRF assay after 6 h treatment. The format is cell-based. Conditions: for DC50: IC50 (DC50) of BTK degradation; for Dmax: TMD8, maximum percentage of inhibition (degradation). The method in brief: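 Remaining BTK was quantified by HTRF in lysates of TMD-8 cells after 6 h exposure to an 8-point, 6-fold compound series (500× stocks in DMSO starting at 1 mM; 0.2% DMSO). Lysis 30 min, antibodies overnight at room temperature, ratio read at 665/620 nm; DC50 fitted with a four-parameter logistic equation.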
For orientation: In TR-FRET formats the signal depends on donor and acceptor labels being close together.

T1 sequence (Q06187 whole entry): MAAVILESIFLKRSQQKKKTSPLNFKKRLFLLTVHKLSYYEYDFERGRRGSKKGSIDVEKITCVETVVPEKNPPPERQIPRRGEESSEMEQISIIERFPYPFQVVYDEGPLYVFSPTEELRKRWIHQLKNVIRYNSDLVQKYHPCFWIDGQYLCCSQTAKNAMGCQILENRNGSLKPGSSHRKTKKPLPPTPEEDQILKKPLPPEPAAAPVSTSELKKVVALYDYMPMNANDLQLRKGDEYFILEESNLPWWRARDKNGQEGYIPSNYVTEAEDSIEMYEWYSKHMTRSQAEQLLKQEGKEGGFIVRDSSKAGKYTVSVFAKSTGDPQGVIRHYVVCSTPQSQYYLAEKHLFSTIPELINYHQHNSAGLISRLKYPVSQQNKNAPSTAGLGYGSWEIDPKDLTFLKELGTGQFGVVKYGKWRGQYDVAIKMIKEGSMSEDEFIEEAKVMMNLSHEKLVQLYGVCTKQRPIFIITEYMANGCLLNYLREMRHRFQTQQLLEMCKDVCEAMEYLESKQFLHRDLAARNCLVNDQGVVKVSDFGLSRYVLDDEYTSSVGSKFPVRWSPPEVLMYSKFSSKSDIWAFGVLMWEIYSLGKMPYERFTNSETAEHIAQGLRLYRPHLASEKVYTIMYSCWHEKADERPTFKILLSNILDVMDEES

A word on the DC50: it is the midpoint of the concentration-degradation curve. Higher therefore signals a less potent degrader. In turn, `Cc1cc(-c2n[nH]c3ncc(-c4ccc(CCN5CCN(c6ccc(N7CCC(=O)NC7=O)cc6)CC5)cc4)cc23)ccc1[C@@H](C)NC(=O)c1noc(C(C)(C)C)n1` [Example 128, (R)-5-(tert-butyl)-N-(1-(4-(5-(4-(2-(4-(4-(2,4-dioxotetrahydropyrimidin-1(2H)-yl)phenyl)piperazin-1-yl)ethyl)phenyl)-1H-pyrazolo[3,4-b]pyridin-3-yl)-2-methylphenyl)ethyl)-1,2,4-oxadiazole-3-carboxamide] registered a 50% degradation concentration (DC50) of 5.84 nM. Take `Cc1cc(-c2n[nH]c3ncc(-c4ccc(N5CCN(C6CC(c7ccc(C8CCC(=O)NC8=O)cc7)C6)CC5)cc4)cc23)ccc1[C@@H](C)NC(=O)c1noc(C(C)(C)C)n1` (stereo partly drawn) [Example 176, 5-(tert-butyl)-N-((1R)-1-(4-(5-(4-(4-(3-(4-(2,6-dioxopiperidin-3-yl)phenyl)cyclobutyl)piperazin-1-yl)phenyl)-1H-pyrazolo[3,4-b]pyridin-3-yl)-2-methylphenyl)ethyl)-1,2,4-oxadiazole-3-carboxamide formate]: the DC50 (formate) was 1.89 nM.

As for `Cc1cc(-c2n[nH]c3ncc(-c4ccc(N5CCN(C6CC(c7ccc([C@@H]8CCC(=O)NC8=O)cc7)C6)CC5)cc4)cc23)ccc1[C@@H](C)NC(=O)c1noc(C(C)(C)C)n1` (stereo partly drawn) [Example 208, 5-(tert-butyl)-N—((R)-1-(4-(5-(4-(4-((1S,3s)-3-(4-((R)-2,6-dioxopiperidin-3-yl)phenyl)cyclobutyl)piperazin-1-yl)phenyl)-1H-pyrazolo[3,4-b]pyridin-3-yl)-2-methylphenyl)ethyl)-1,2,4-oxadiazole-3-carboxamide], it took 2.08 nM to reach half-maximal degradation (DC50). The same measure, in the same setting: under `Cc1cc(-c2n[nH]c3ncc(-c4ccc(C5(C)CCN(CC6CCN(c7ccc(N8CCC(=O)NC8=O)cc7)CC6)CC5)cc4)cc23)ccc1[C@@H](C)NC(=O)c1noc(C(C)(C)C)n1` [Example 210, (R)-5-(tert-butyl)-N-(1-(4-(5-(4-(1-((1-(4-(2,4-dioxotetrahydropyrimidin-1(2H)-yl)phenyl)piperidin-4-yl)methyl)-4-methylpiperidin-4-yl)phenyl)-1H-pyrazolo[3,4-b]pyridin-3-yl)-2-methylphenyl)ethyl)-1,2,4-oxadiazole-3-carboxamide] stands 5.98 nM; under `Cc1cc(-c2n[nH]c3ncc(-c4ccc(C5CCN(C6CC(c7ccc(C8CCC(=O)NC8=O)cc7)C6)CC5)nc4)cc23)ccc1[C@@H](C)NC(=O)c1noc(C(C)(C)C)n1` (stereo partly drawn) [Example 197, 5-(tert-butyl)-N-((1R)-1-(4-(5-(6-(1-(3-(4-(2,6-dioxopiperidin-3-yl)phenyl)cyclobutyl)piperidin-4-yl)pyridin-3-yl)-1H-pyrazolo[3,4-b]pyridin-3-yl)-2-methylphenyl)ethyl)-1,2,4-oxadiazole-3-carboxamide], 1.08 nM.

One may read the Dmax as the largest share of the target that was removed. Molecule `Cc1cc(-c2n[nH]c3ncc(-c4ccc(N5CCN(CCc6ccc(C7CCC(=O)NC7=O)c(F)c6)CC5)cc4)cc23)ccc1[C@@H](C)NC(=O)c1nc(C(C)(C)C)no1` (stereo partly drawn) [Example 34, 3-(tert-butyl)-N-((1R)-1-(4-(5-(4-(4-(4-(2,6-dioxopiperidin-3-yl)-3-fluorophenethyl)piperazin-1-yl)phenyl)-1H-pyrazolo[3,4-b]pyridin-3-yl)-2-methylphenyl)ethyl)-1,2,4-oxadiazole-5-carboxamide] had a half-maximal degradation concentration (DC50) of 3.39 nM and a Dmax of 95.6%.

As to `Cc1cc(-c2n[nH]c3ncc(-c4ccc(N5CCN(CCc6ccc([C@@H]7CCC(=O)NC7=O)cn6)CC5)cc4)cc23)ccc1[C@@H](C)NC(=O)c1noc(C(C)(C)C)n1` [Example 139, 5-(tert-butyl)-N—((R)-1-(4-(5-(4-(4-(2-(5-((S)-2,6-dioxopiperidin-3-yl)pyridin-2-yl)ethyl)piperazin-1-yl)phenyl)-1H-pyrazolo[3,4-b]pyridin-3-yl)-2-methylphenyl)ethyl)-1,2,4-oxadiazole-3-carboxamide], it took 1.03 nM to reach half-maximal degradation (DC50). As to `Cc1cc(-c2n[nH]c3ncc(-c4ccc(N5CCN(CC6CCN(c7ccc(N8CCC(=O)NC8=O)cc7)CC6)CC5)cc4)cc23)ccc1CNC(=O)c1cn(C(C)(C)C)nn1` [Example 31, 1-(tert-butyl)-N-(4-(5-(4-(4-((1-(4-(2,4-dioxotetrahydropyrimidin-1(2H)-yl)phenyl)piperidin-4-yl)methyl)piperazin-1-yl)phenyl)-1H-pyrazolo[3,4-b]pyridin-3-yl)-2-methylbenzyl)-1H-1,2,3-triazole-4-carboxamide], the DC50 worked out at 21.8 nM and the maximal degradation (Dmax) came out at 97.4%. For the molecule `Cc1cc(-c2n[nH]c3ncc(-c4ccc(N5CCN(CC6CCN(c7ccc(N8CCC(=O)NC8=O)cc7)CC6)CC5)nc4)cc23)ccc1CNC(=O)c1noc(C(C)(C)C)n1` [Example 65, 5-(tert-butyl)-N-(4-(5-(6-(4-((1-(4-(2,4-dioxotetrahydropyrimidin-1(2H)-yl)phenyl)piperidin-4-yl)methyl)piperazin-1-yl)pyridin-3-yl)-1H-pyrazolo[3,4-b]pyridin-3-yl)-2-methylbenzyl)-1,2,4-oxadiazole-3-carboxamide], half-maximal degradation (DC50) was put at 7.67 nM.

`COc1nc(CCN2CCN(c3ccc(-c4cnc5[nH]nc(-c6ccc([C@@H](C)NC(=O)c7nc(C(C)(C)C)no7)c(C)c6)c5c4)cc3)CC2)ccc1C1CCC(=O)NC1=O` (stereo partly drawn) [Example 195, 3-(tert-butyl)-N-((1R)-1-(4-(5-(4-(4-(2-(5-(2,6-dioxopiperidin-3-yl)-6-methoxypyridin-2-yl)ethyl)piperazin-1-yl)phenyl)-1H-pyrazolo[3,4-b]pyridin-3-yl)-2-methylphenyl)ethyl)-1,2,4-oxadiazole-5-carboxamide] showed a DC50 of 6.13 nM.

`Cc1cc(-c2n[nH]c3ncc(-c4ccc(N5CCN(CCc6ccc([C@@H]7CCC(=O)NC7=O)cc6)CC5)cc4)cc23)ccc1[C@@H](C)NC(=O)c1noc(C(C)(C)C)n1` [Example 112, 5-(tert-butyl)-N—((R)-1-(4-(5-(4-(4-(4-((S)-2,6-dioxopiperidin-3-yl)phenethyl)piperazin-1-yl)phenyl)-1H-pyrazolo[3,4-b]pyridin-3-yl)-2-methylphenyl)ethyl)-1,2,4-oxadiazole-3-carboxamide]: the DC50 is 1.79 nM. On the same count and under the same terms, the figure for `Cc1cc(-c2n[nH]c3ncc(-c4ccc(N5CCN(CCc6ccc(N7CCC(=O)NC7=O)cn6)CC5)cc4)cc23)ccc1[C@@H](C)NC(=O)c1noc(C(C)(C)C)n1` [Example 194, (R)-5-(tert-butyl)-N-(1-(4-(5-(4-(4-(2-(5-(2,4-dioxotetrahydropyrimidin-1(2H)-yl)pyridin-2-yl)ethyl)piperazin-1-yl)phenyl)-1H-pyrazolo[3,4-b]pyridin-3-yl)-2-methylphenyl)ethyl)-1,2,4-oxadiazole-3-carboxamide] is 1.69 nM; for `Cc1nc(CCN2CCN(c3ccc(-c4cnc5[nH]nc(-c6ccc([C@@H](C)NC(=O)c7noc(C(C)(C)C)n7)c(CO)c6)c5c4)cc3)CC2)ccc1C1CCC(=O)NC1=O` (stereo partly drawn) [Example 167, 5-(tert-butyl)-N-((1R)-1-(4-(5-(4-(4-(2-(5-(2,6-dioxopiperidin-3-yl)-6-methylpyridin-2-yl)ethyl)piperazin-1-yl)phenyl)-1H-pyrazolo[3,4-b]pyridin-3-yl)-2-(hydroxymethyl)phenyl)ethyl)-1,2,4-oxadiazole-3-carboxamide] it is 4.13 nM.
